These are literature values, as cited in US9089636B2, “Methods and devices for delivering GLP-1 and uses thereof” (VALERITAS, INC., priority 2004, dated 2015).

Where two headings read alike, the source gives them in different places. No end group written: not given here.

Data set [1] has as its system rat PC12 pheochromocytoma cell line.
For data set [2], the target named is cloned GLP-1 receptor (Homo sapiens, UniProt P43220).
For data set [3], the system named is rats. Particulars: for effect on GLP-1-induced fecal output: rat, in vivo.
The test system of data set [4] is CNS. The settings on record: in vivo.
For data set [5] the following is noted: in vivo.
In data set [6] the target is dipeptidylaminopeptidase IV (DPP-IV) (Homo sapiens, UniProt P27487).
Chain of dipeptidylaminopeptidase IV (DPP-IV) (P27487 whole entry, species assumed): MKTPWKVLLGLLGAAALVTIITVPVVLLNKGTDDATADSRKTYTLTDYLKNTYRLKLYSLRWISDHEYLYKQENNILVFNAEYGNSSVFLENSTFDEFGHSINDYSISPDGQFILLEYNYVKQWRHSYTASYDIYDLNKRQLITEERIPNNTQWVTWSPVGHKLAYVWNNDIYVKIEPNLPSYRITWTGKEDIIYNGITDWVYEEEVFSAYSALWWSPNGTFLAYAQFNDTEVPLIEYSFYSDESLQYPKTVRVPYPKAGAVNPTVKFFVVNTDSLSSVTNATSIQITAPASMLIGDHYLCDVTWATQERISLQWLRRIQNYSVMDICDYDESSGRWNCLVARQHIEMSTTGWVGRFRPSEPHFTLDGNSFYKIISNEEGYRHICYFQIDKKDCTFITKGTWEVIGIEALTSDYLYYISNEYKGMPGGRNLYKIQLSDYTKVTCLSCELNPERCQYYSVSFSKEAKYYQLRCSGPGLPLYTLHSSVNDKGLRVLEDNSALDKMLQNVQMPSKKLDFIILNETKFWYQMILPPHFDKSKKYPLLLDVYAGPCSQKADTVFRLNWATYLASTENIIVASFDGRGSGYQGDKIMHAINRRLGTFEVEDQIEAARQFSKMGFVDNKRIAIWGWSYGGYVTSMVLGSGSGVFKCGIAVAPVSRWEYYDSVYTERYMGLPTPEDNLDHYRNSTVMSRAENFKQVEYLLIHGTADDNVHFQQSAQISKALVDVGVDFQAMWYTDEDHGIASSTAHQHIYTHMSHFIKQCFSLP
Data set [7] relates to hippocampal neurons. Particulars: systemic administration.
Data set [8] has as its system rats. Particulars: for blood pressure and heart rate: centrally and peripherally administered.
Data set [9] deals with Min6 mouse islet cells.
In data set [10] the test system is subjects with type 2 diabetes. Particulars: following a liquid test meal.
Data set [11] relates to human islets. Particulars: 5 days.
In data set [12] the test system is AR42J cell line.
Data set [13] relates to rats. Particulars: ICV.
Data set [14] concerns rat cardiac myocytes.
Data set [15] concerns human volunteers. The settings on record: 60 minute infusion, 30 pmol/kg/h.
Data set [16] deals with cultured fetal rat hippocampal neurons. The settings on record: for extent of glutamate-induced cell death: short term cultures.
The test system of data set [17] is human subjects with LV dysfunction and acute MI.
Data set [18] deals with cultured myotubes. The settings on record: 0.1-1 pM.
Data set [19] has as its system human subjects. Particulars: physiologically relevant concentrations.
The test system of data set [20] is neonatal GK rat. The settings on record: 5 days.
Data set [21] deals with human NIP cells.
In data set [22] the test system is muscle strips.
The test system of data set [23] is BHK fibroblasts expressing a transfected GLP-1 receptor.
In data set [24] the test system is lean mice. The settings on record: subcutaneous, 2 days.
Data set [25] deals with fetal pig islet clusters. The settings on record: 75-90 day gestational age.
The test system of data set [26] is Multiple cell models.
The subject of data set [27] is RIN1046-38 cells.
Data set [28] concerns young and old rats. The settings on record: infusion for 5 days.
Data set [29] concerns calpain.
For data set [30], the system named is Zucker diabetic rats. Particulars: 2 day infusion.
Data set [31] relates to Multiple islet cell lines.
The subject of data set [32] is salt-sensitive rats. Particulars: 14 day treatment, high salt diet.
For data set [33], the system named is pigs.
For data set [34], the system named is INS-1 cells.
For data set [35], the system named is db/db mice.
Data set [36] has as its system human islet-like cell clusters. The settings on record: 4 days in vitro.
The subject of data set [37] is db/db mice. The settings on record: daily for 14 days.
Data set [38] concerns ob/ob mice.
Data set [39] relates to blood brain barrier. The settings on record: CD1 mice.
For data set [40], the system named is mice.
Data set [41] concerns rat pancreatectomy model. Particulars: in vivo.
Data set [42] deals with Capan-1.
The test system of data set [43] is purified rat b cells. Particulars: combination of cytotoxic cytokines.
The subject of data set [44] is human subjects. The settings on record: infusion.
Setting [45] is: after 72-hour infusion at 1.5 pmol/kg per minute.
Setting [46] is: after reperfusion, before GLP-1 infusion.

Chain of cloned GLP-1 receptor (P43220 24-463): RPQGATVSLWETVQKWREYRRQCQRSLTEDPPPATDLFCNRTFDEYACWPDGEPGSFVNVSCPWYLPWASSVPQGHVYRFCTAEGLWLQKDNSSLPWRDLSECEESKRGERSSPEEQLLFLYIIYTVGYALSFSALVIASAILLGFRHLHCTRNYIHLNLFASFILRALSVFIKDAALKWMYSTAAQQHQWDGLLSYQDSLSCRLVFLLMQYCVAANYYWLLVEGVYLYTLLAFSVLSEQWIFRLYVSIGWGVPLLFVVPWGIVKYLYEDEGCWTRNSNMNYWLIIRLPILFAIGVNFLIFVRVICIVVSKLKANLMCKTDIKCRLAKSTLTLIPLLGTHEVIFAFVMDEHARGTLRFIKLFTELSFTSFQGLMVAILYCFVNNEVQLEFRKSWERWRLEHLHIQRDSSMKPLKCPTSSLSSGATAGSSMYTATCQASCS

With `COc1cccc(-c2cc(=O)c3ccccc3o2)c1N` [PD98059], the “effect on the differentiation actions of GLP-1” value in data set [1] is reported as “abrogated”.
“GLP-1 (9-36)amide (EGTFTSDVSSYLEGQAAKEFIAWLVKGR-NH2; UniProt P01275 100-127, looked up, fragment) [GLP-1 (9-36) amide, truncated fragment, primary metabolite of GLP-1 produced by DPP-IV]”: the “effect on the action of GLP-1 7-36 amide” value in data set [2] is listed as “antagonized”.
Regarding astressin, the “effect on GLP-1-induced fecal output” value in [3] is reported as “blocked”.
As for “[Ser8]GLP-1 (HSEGTFTSDVSSYLEGQAAKEFIAWLVKGRG; also: radiolabel, position not given here; UniProt P01275 98-128, looked up, variant A8S)”, the “uptake into the CNS” value in data set [4] is “not saturable”.
For the compound Val8-GLP-1(7-37)OH, the optimum plasma levels in data set [5] is 30-200 picomoles/liter. The DPP-IV degradation entry in data set [6] is reported as “resistant”.
For the compound `O=S(=O)(NCCNC/C=C/c1ccc(Br)cc1)c1cccc2cnccc12` [H-89], the “effect on the differentiation actions of GLP-1” value in data set [1] is on record as “only modest effects”.
On to [Ser(2)]exendin(1-9), for which the “kainate-induced apoptosis of hippocampal neurons” value in data set [7] is recorded as “prevents”.
For the compound `CN1[C@@H]2CC[C@H]1C[C@@H](OC(=O)C(CO)c1ccccc1)C2` (some centres unmarked) [atropine], in data set [8] (normal rats), the “effect on the stimulatory effect of GLP-1 on blood pressure” value was “prevented”.
Consider Glucagon-like peptide-1 [GLP-1], for which the “extent of hydrogen peroxide-induced apoptosis” value in data set [9] (in vitro) was “reduced”. In addition, in data set [10], the gastric emptying result is reported as “inhibits”. Moreover, the cell death result in data set [11] was “decreased”. Moreover, in [11], the glucose-stimulated insulin secretion result is given as “improved”. The fecal output result in data set [3] (ICV) is listed as “increase”. Besides, the “differentiation to an endocrine phenotype” value in [12] is reported as “promotes”. Moreover, the food intake entry in [13] is on record as “dose-dependently inhibits”. The contraction amplitude entry in data set [14] was “decrease”. Besides, the “intracellular cAMP” value in [14] was “increased”. For the same compound, the “Rd (glucose disposal)” value in data set [15] is listed as “no significant change”. Also, the “decrease in Ra (endogenous glucose production)” value in data set [15] is reported as 17%. Moreover, the plasma glucose entry in data set [15] was “decreased”. Also, the “protection against glutamate-induced apoptosis” value in data set [16] is recorded as “completely protect”. In addition, the “extent of glutamate-induced cell death” value in data set [16] is listed as “significantly reduced”. Besides, the LVEF in [17] (setting [45]) is on record as 39+2%; in data set [17] (setting [46]) it was 29+2%. The “global wall motion score indexes” value in [17] (setting [45]) is listed as 1.63 ± 0.09; in data set [17] (setting [46]), 1.94 ± 0.11. The “regional wall motion score indexes” value was 2.02 ± 0.11 in [17] (setting [45]) and 2.53 ± 0.08 in data set [17] (setting [46]). In addition, the “plasma glucose and free fatty acids” value in data set [17] (human, in vivo) is “significant decrease”. For the same compound, the “glucose incorporation into glycogen” value in data set [18] is reported as “stimulated”. The “pentagastrin-stimulated gastric acid secretion” value in [19] is on record as “inhibited”. Further, the “pancreatic insulin content and total beta-cell mass” value in data set [20] was “enhanced”. The “insulin expression in subsets of cells” value in data set [21] is reported as “induced”. Also, the glycogen synthesis result in data set [22] is on record as “stimulated”. For the same compound, the cell survival entry in data set [23] is reported as “increased”. In addition, in data set [24], the islet labeling index entry is “increased”. The glucose-dependent insulin secretion result in [25] is “promoted”. Further, the “blood pressure and heart rate” value in data set [8] is reported as “dose-dependently increased”. The “Gene or Protein activated by GLP-1” value in [26] is “Insulin RNA”; in data set [27] (GLUT-1 RNA) it was “GLUT-1 RNA”; in data set [27] (Hexokinase I RNA) it was “Hexokinase I RNA”; in data set [27] (SNAP-25 phosphorylation), “SNAP-25 phosphorylation”; in [31], “Pdx-1 RNA and protein”; in [34] (Akt and IRS proteins) it was “Akt and IRS proteins”. Besides, the “Gene or Protein activated by GLP-1” value in data set [34] (Calcineurin and NFAT) was “Calcineurin and NFAT”; in data set [34] (Glucokinase), “Glucokinase”; in [34] (Immediate early genes), “Immediate early genes”; in [34] (Kir 6.2 RNA), “Kir 6.2 RNA”. Besides, the β cell mass entry in data set [28] is recorded as “increased”. The calpain activity result in [29] was “decreased”. For the same compound, the “peak plasma level of GLP-1” value runs as follows: (continuous 5 day subcutaneous infusion) 88.7 pM; (subcutaneous injection 30 minutes before meals) 269.4 pM. In data set [30], the “islet size and β cell mass” value is reported as “increased”. The “percentage of apoptotic β cells” value in data set [30] is listed as “significantly reduced”. Moreover, the development of hypertension entry in [32] is “reduced”. Moreover, in [33], the cephalic-induced antral motility result is recorded as “strongly inhibited”.
In the case of `CNC1(C)C2CCC(C2)C1(C)C` (centres unmarked) [mecamylamine], in [8] (normal rats), the “effect on the GLP-1-dependent increase in heart rate” value is recorded as “blocked” and the “effect on the stimulatory effect of GLP-1 on blood pressure” value was “prevented”.
As for exendin-4, the β cell proliferation entry in [35] is on record as “increased”. For the same compound, the “differentiation to an endocrine phenotype” value in data set [12] is recorded as “promotes”. Further, in [16], the “protection against glutamate-induced apoptosis” value is on record as “completely protect” and the “extent of glutamate-induced cell death” value is “significantly reduced”. In addition, the “pancreatic insulin content and total beta-cell mass” value in data set [20] is given as “enhanced”. In addition, in data set [21], the “insulin expression in subsets of cells” value is recorded as “induced”. For the same compound, the cell survival result in [23] is recorded as “increased”. Moreover, in data set [36], the Pdx-1 expression entry is “enhance” and the insulin expression entry is on record as “not”. For the same compound, in data set [37], the “numbers of Tunel+ apoptotic β cells” value was “reduced”, the “progression to more frank diabetes” value is listed as “prevented” and the β cell mass entry was “increased”. Further, the β cell proliferation entry in [38] is “not”. Moreover, the “crossing of the blood brain barrier” value in [39] was “readily crosses”. In addition, the “β cell apoptosis induced by streptozotocin (STZ)” value in data set [40] is “reduced”. Also, in [41], the “glucose intolerance following partial pancreatectomy” value is “attenuates”; the “islet neogenesis and β cell proliferation” value is reported as “increases”. Besides, the “blood pressure and heart rate” value in [8] is listed as “dose-dependently increased”. In [42], the “number of cells exhibiting immunopositivity for insulin or glucagon” value is recorded as “significant increase”. For the same compound, in data set [43], the “extent of apoptotic cell death” value is reported as “directly reduced”.
On to `Nc1ncnc2c1ncn2[C@@H]1O[C@@H]2COP(O)(=S)O[C@H]2[C@H]1O` (some centres unmarked) [Rp-cAMP, reference compound], for which, in data set [9], the “effect on the anti-apoptotic effects of GLP-1” value is “partially blocked”.
Take exendin (9-39): the “effect on GLP-1-induced fecal output” value in [3] is reported as “blocked”. In addition, in [13], the food intake result is “increased”. For the same compound, the “effect on the insulinotropic and glucagonostatic effects of exogenous GLP-1” value in data set [44] was “blocked”.
